One compound from patent publication US11840521B2, “Modulators of Mas-related G-protein receptor X4 and related products and methods” (Escient Pharmaceuticals, Inc., priority 2019, dated 2023) can be followed below.

Assay [1] deals with T1, MRGPRX4 (Homo sapiens, UniProt Q96LA9). Nature of the assay: Agonism of MRGPRX4 by bilirubin and urobilin samples after 24 h storage. The note with it: 24 h at room temperature under blue light; FIG. 4B. Format: cell-based.
Method: Samples were evaluated after 24 hours and the percent remaining of urobilin and bilirubin, relative to a time zero standard, were determined by measurement of the degradation of the analyte contained in the samples as determined by tandem mass spectroscopy (LC MS/MS). The samples (at 24 h) were also evaluated for their ability to agonize MRGPRX4.
In a further assay the test system is wild type mice. Nature of the assay: Mouse itch study, scratching bouts after subcutaneous pruritogen (SCLABA). Format: in vivo. The following applies: SC injection on the neck, 30 min recording, FIG. 2A-2B. The method, then:
The ability of urobilin to induce itch in wild type mice was also tested. Typical mouse itch studies occurred as follows: C57B6J male mice were multiple-housed in a normal light cycle (6 am on; […]) under temperature and humidity-controlled conditions. The mice were handled and habituated to test chambers before testing, then placed in individual SCLABA test chambers. After 20 minutes, the mice were dosed PO with vehicle (saline, pH 7-8). After 30 minutes, the pruritogen of study ([…] in saline) or saline is given subcutaneously (SC) on the neck on the midline behind the ears. Video was recorded from the first pruritogen injection for 30 minutes using the SCLABA system. Scratching bouts were scored from SCLABA thumbnails using 12/45/85/100 waveform criteria. Group sizes were typically 9-10 animals per group.

For assay [2], the target named is T1, MRGPRX4. Kind of assay: In vitro activation (agonism) of MRGPRX4, IP-One Gq HTRF assay. The note with it: FIG. 1; compared with bilirubin. The assay is classed as cell-based. The method, then:
Metabolites of heme (bilirubin, biliverdin, urobilin, urobilinogen, and stercobilin) were analyzed for in vitro activation of MRGPRX4. Cells were plated in a 384-well assay plate at 20,000 cells per well in 12 μL of Opti-MEM and kept in an incubator overnight. On the day of the assay, different agonists solubilized at 10 mM in 0.1% NaOH were added as a 10-point curve ([…] final top concentration with 1:3 serial dilutions) using a Tecan D300E digital dispenser. Agonists were diluted in assay buffer (final concentrations of 5.7 mM Tris-HCl, 43 mM NaCl, 50 mM LiCl, pH=8) and 2 μL of the appropriate agonist are added to each well. Plates were incubated in the dark for 1 h at 37° C. and then for 30 minutes at room temperature. IP-1 standards and HTRF detection reagents were added according to the IP-One—Gq Kit purchased from Cisbio (part number 62IPAPEJ) and incubated in the dark for 1 h at room temperature. The plate was read on a Molecular Devices SpectraMax iD5 plate reader. The HTRF ratio was calculated from the raw data and graphed using GraphPad Prism to calculate an IC50 value for each compound.

Each structure is given as a SMILES string. Entries after “also recorded” stand apart in the source; their conditions may differ.

T1 sequence (Q96LA9 whole entry): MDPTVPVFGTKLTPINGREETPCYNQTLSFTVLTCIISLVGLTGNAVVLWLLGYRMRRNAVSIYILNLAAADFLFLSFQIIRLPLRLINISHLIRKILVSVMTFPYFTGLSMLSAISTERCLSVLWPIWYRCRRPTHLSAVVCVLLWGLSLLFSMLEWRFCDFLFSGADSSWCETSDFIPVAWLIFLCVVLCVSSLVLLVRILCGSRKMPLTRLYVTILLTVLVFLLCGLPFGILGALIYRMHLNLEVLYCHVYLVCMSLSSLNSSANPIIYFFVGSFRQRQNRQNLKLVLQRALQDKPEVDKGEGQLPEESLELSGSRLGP

As for `CCC1=C(C)C(CC2=N/C(=C\c3[nH]c(CC4NC(=O)C(C)=C4CC)c(C)c3CCC(=O)O)C(CCC(=O)O)=C2C)NC1=O` (stereo not drawn) [Urobilin, urobilin], the “agonist activity on MRGPRX4 after storage, relative to the other three groups” value at MRGPRX4 [1] is given as “very little agonist activity”. Moreover, in the assay with wild type mice, the “induction of scratch response in mice” value is on record as “induced scratch response in mice in a dose dependent manner; also recorded: potent inducer of scratch response in mice”. Besides, the “efficacy at activating MRGPRX4 relative to bilirubin” value at MRGPRX4 [2] is listed as “at least 10 fold”.
